Measured values from patent publication US9308244B2, “Combination therapy using active immunotherapy” (immatics Biotechnologies GmbH, priority 2007, dated 2016).
Entries after “also recorded” stand apart in the source; their conditions may differ.

Assays:
A498 and RCC068 = assay: Long-term culture of renal cell carcinoma cell lines in the presence of TKIs; format: cell-based, human; details: 13 μM sorafenib, 14 d time point, cells harvested after 10 days
Experimental: The human renal cell carcinoma cell lines A498 and RCC068 were cultured in RPMI medium (5% FCS (Biochrom, Berlin, Germany), 5% HS (PromoCell, Heidelberg, Germany)). […] For each time point 3 flasks of each cell line were prepared by containing either 0.1% DMSO alone as a control, 13 μM sorafenib (8.3 μg/ml sorafenib tosylate)+0.1% DMSO, or 250 nM sunitinib (133 ng/ml sunitinib malate).
A normal medium control sample containing neither DMSO nor TKIs was harvested at 1 h for each cell line.

[1] = mouse, in vivo
Experimental: Female C57BL/6 mice (20-25 g, Harlan Winkelmann GmbH, Borchen, Germany) were used for all experiments described in this section. Animals were kept in the animal facility of the Dept. of Immunology at the University of Tuebingen. Animals were cared for by trained animal keepers and health status of animals was supervised by the veterinaries of the University of Tübingen. Feeding with drug was also performed in part by the local animal keepers after special training. All animals were supplied with water and food ad libitum. The described experiments were performed according to procedure no. IM1/06 approved by the Regierungsprasidium Tuebingen.
A liquid, viscous vehicle composed of 30% (w/v) Cremophor EL (Sigma, Deisenhofen, Germany), 30% (w/v) PEG 400 (Sigma, Deisenhofen, Germany), 10% ethanol p.a., 10% glucose was used. Sunitinib and sorafenib were suspended in vehicle according to the planned dosages in a way that […] body weight had to be applied to all mice, according to approx. 50 μl of suspension. Feasible aliquots were prepared from suspensions and from vehicle and stored until use at −20° C. in the dark. Thawed substance was stored at 4° C. and used within the next three days. Animals were weighed before start of treatment and thereafter weekly. The deduced dosage was applied daily using a 1 ml syringe with gavage into the backward cavity of the mouth of the animal without anesthesia. Drug delivery into blood plasma was controlled as described in example 1.
1) Immunization under continuous treatment with tyrosine kinase inhibitors. Pretreatment phase was two weeks (see FIG. 5A). […]
3) The experimental design was identical to a) Beside negative and positive control groups, groups treated with 60 mg/kg body weight sorafenib, and 20 and 40 mg/kg body weight sunitinib were included (6 mice per group). For spleen cells, CD4, Tregs, CD8 cells, and B cells were assessed, for PBMCs CD4, CD8, B cells and Tregs were analyzed.

C57BL/6 T cells = assay: Mouse mixed lymphocyte reaction (CFSE-labeled C57BL/6 spleen cells vs irradiated BALB/c splenocytes); format: cell-based; details: for Cell morphology in flow cytometry (putatively toxic effects): 13 μM sorafenib
Experimental: CFSE-labeled spleen cells from C57BL/6 (H2-b) mice were co-cultured with irradiated splenocytes from BALB/c (H2-d) mice, resulting in the strong allogenic response and proliferation of the C57BL/6 T cells against H2-d MHC molecules. The proliferation of the T cells results in a diminished CFSE staining of the divided cells. Percentage of divided cells and their number of divisions can be analyzed by flow cytometry.
Spleen cells were prepared from 1 C57BL/6 mouse and 1 BALB/c mouse (Harlan Winkelmann GmbH, Borchen, Germany). BALB/c cells were irradiated with 33 Gy. Effectors (C57BL/6) were adjusted to 20 Mio cells/ml. A 2 mM 5(6)-Carboxyfluorescindiacetate-N-succinimidylester (CFSE, Fluka, Buchs, Switzerland) solution in PBS was freshly prepared from a 10 mM DMSO stock solution. The cell suspension was mixed 1:1 with the CFSE solution. After incubation at 37° C. for 4 min, reaction was stopped by addition of fetal calf serum (Biochrom, Berlin, Germany), and free CFSE was washed out. 2×10^5 stimulator cells (BALB/c) were plated into cavities of a 96-well round-bottom plate. 1×10^5 or 2×10^5 CFSE-labeled effector cells and tyrosine kinase inhibitors at two different concentrations were added. Appropriate positive and negative controls were included. All cultures were in 200 μl T-cell medium with 0.1% (v/v) DMSO for 5 or 7 days without further medium change. Thereafter, cells were stained with fluorescently labelled anti-CD4-PerCP and anti-CD8-FITC antibodies (both BD Biosciences, Heidelberg, Germany) and analyzed by flow cytometry.
The experiment described above was repeated with the exception that a 96-well flat-bottom plate was used for mixed lymphocyte reactions (MLRs), a syngenic control with irradiated C57BL/6 cells was included, more concentrations of inhibitors were assessed, and all groups were analyzed in triplicates.
During cultivation, half of the medium was replaced with fresh appropriate medium supplemented with final concentrations of tyrosine kinase inhibitors every day, and proliferation was analyzed at day 7 only. Additionally cells were stained for H2-Kb to clearly identify effector cells in a further dimension.

[2] = test system: OVA-001 specific CD8+ T-cells; format: in vivo, C57BL/6 mice

Structure (SMILES): CNC(=O)c1cc(Oc2ccc(NC(=O)Nc3ccc(Cl)c(C(F)(F)F)c3)cc2)ccn1 [Sorafenib, 4-(4-{3-[4-Chloro-3-(trifluoromethyl)phenyl]ureido}phenoxy)-N-methylpyrid-ine-2-carboxamide]
- Cell growth in culture (A498 and RCC068): prevented cell growth
- Toxic side effects [1]: without any observed toxic side effects
- CD4+ T-cell proliferation in response to allogenic stimuli (summary) (C57BL/6 T cells): increased
- CD8+ T-cell proliferation in response to allogenic stimuli (summary) (C57BL/6 T cells): slightly decreased; also recorded: slightly reduced
- CD8 proliferation (C57BL/6 T cells; first experiment, 1.3 μM sorafenib): only slightly affected
- Cell morphology in flow cytometry (putatively toxic effects) (C57BL/6 T cells; first experiment): different morphology
- Cell morphology in flow cytometry (putatively toxic effects) (C57BL/6 T cells; first experiment, listed as sorafenib): clear change in morphology
- Level inducing toxic effects (dramatically changed morphology of cells in flow cytometry) (C57BL/6 T cells; second experiment): ≥ 6.5 μM
- Cell morphology (toxic effects of the drug) (C57BL/6 T cells; second experiment, 6.5 or 13 μM Sorafenib): severe changes in morphology
- CD8+ proliferation (C57BL/6 T cells; second experiment, day 7): slight decrease
- Proliferation of CD4+ cells (C57BL/6 T cells; second experiment, day 7, 1.6 μM sorafenib): significant increase
- Drug-related toxicity for cells in mixed lymphocyte reactions (summary) (C57BL/6 T cells; sorafenib: at concentration near the steady-state plasma level of treated patients): toxic
- Reversibility of the immunosuppressive influence after discontinuation of treatment ([2]; mouse, in vivo): rapidly reversed
- Numbers of OVA-001-specific T-cells ([2]; treatment stopped 48 h before first immunization, 80 mg/kg bw sunitinib, both sorafenib dosages, differences not significant): Reduced numbers
